This is an account of results in ChEMBL document CHEMBL1127272, “2-Aryl-1-azabicyclo[2.2.2]octanes as novel nonpeptide substance P antagonists” (Bioorg Med Chem Lett, 1994).

Assay [1] concerns the target T1, Substance-P receptor (Homo sapiens, UniProt P25103). Kind of assay: Inhibitory concentration for displacement of [3H]-Substance P (SP) in human IM-9 cells. The class given is cell-based. (In a radioligand displacement assay an active substance lowers the binding of a labelled ligand.)
The target of assay [2] is T1, Substance-P receptor. The assay is described as follows: Tested for Tachykinin receptor 1 antagonistic activity in dog isolated carotid artery(DCA) system at a concentration of 5*10e-6 M. The class given is functional. The following applies: Canis lupus familiaris; target entry is the homologue from another species.

T1 sequence (P25103 whole entry): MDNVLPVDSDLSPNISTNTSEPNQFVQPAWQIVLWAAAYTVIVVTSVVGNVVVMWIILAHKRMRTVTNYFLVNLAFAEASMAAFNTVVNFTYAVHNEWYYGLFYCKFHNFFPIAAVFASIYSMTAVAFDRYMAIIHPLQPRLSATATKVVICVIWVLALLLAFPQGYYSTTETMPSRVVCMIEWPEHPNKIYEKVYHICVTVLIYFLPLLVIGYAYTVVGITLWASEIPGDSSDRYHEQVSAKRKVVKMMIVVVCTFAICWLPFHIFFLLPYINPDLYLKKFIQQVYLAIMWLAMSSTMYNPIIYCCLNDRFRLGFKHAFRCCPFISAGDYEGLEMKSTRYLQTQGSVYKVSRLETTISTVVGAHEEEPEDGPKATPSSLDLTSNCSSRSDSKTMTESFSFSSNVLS

By IC50 is commonly meant the concentration that gives 50% inhibition. The low end stands for greater potency, the high end for weaker potency. On to `COc1ccc(CN[C@@H]2C3CCN(CC3)[C@@H]2c2cccc(Cl)c2)c(OC)c1` (single isomer, unassigned), for which the IC50 at Substance-P receptor [1] is 39 nM. Same read-out and setting: to `COc1ccccc1CN[C@H]1C2CCN(CC2)[C@H]1c1cccc(Cl)c1` belongs 20 nM. On the same count and under the same terms, as for `COc1ccc(CN[C@H]2C3CCN(CC3)[C@@H]2c2cccc(Cl)c2)c(OC)c1`, the figure is 350 nM; as for `COc1cccc([C@H]2[C@@H](NCc3ccccc3OC)C3CCN2CC3)c1`, 160 nM. The term pKB denotes the negative decadic logarithm of the KB, by convention in mol/L. On to `COc1ccc(CN[C@H]2C3CCN(CC3)[C@H]2c2cccc(Cl)c2)c(OC)c1`, for which the pKB at Substance-P receptor [2] is 7. Compound `COc1ccccc1CN[C@@H]1C2CCN(CC2)[C@H]1c1cccc(Cl)c1` showed an IC50 on Substance-P receptor [1] of 240 nM. With `COc1ccccc1CN[C@@H]1C2CCN(CC2)[C@H]1c1ccccc1`, the IC50 at Substance-P receptor [1] worked out at 700 nM. Still for that read-out and setting: to `COc1ccccc1CN[C@H]1C2CCN(CC2)[C@H]1c1ccccc1` belongs 140 nM. As to `Clc1cccc([C@H]2[C@@H](NCc3ccccc3Cl)C3CCN2CC3)c1`, at Substance-P receptor [1], the IC50 was determined as 230 nM.
